In assay [1] the target is T1, Mycoplasma arginini (IFO 14476) arginine deiminase (EC 3.5.3.6), present invention, amino acid sequence of FIG. 4 (Mycoplasmopsis arginini, UniProt P23793).
T1 construct: Arginine deiminase was purified from the M. arginini cell extract; endogenous in cells; host or cells: Mycoplasma arginini IFO 14476 cells (strain from the Institute for Fermentation, Osaka); enzyme purified in house by three chromatography steps
Put plainly: Km determination by Lineweaver-Burk plot analysis, citrulline formation assay. The assay is classed as biochemical. As to conditions: purified enzyme from M. arginini, substrate L-arginine. How it is done: The activity of arginine deiminase can be determined by causing it to produce citrulline using the method reported by Fenske et. al. [J. Bacteriol. 126, 501-510 (1976)], and by measuring the amount of the yields using the method given by Archibald [J. Biol. Chem. 156, 121-142 (1944)].
Specifically, 20 μl of arginine deiminase solution is added to 1.0 ml of 10 mM arginine [dissolved in 0.1M phosphate buffer of pH 7.0], then an enzyme reaction is allowed to take place at 37° C. for 10 minutes, and the reaction is terminated by adding 1 ml of mixed acid solution (H2 SO4 :H3 PO4 =1:3). Then, the resultant reactive solution is added with 25 μl of 3% aqueous diacetylmonooxim solution, heated at 100° C. for 20 minutes under a light-shielded condition, left to cool under a room temperature for 30 minutes, and then the amount of the citrulline yield is measured quantitatively by measuring the absorbence at 490 nm. The activity of arginine deiminase producing 1 μmol of citrulline in one minute is defined as 1 unit.
v) Km value and Vmax value
By the Lineweaver-Burk plot analysis Km and Vmax were determined as 0.2 mM and 50 U/mg, respectively.

The subject of assay [2] is M. arthritidis arginine deiminase. As to conditions: literature value, Table 1; substrate L-arginine; cited from earlier work.
The subject of assay [3] is M. hominis arginine deiminase. As to conditions: literature value, Table 1; substrate L-arginine; cited from earlier work.
Assay [4] deals with Strepto- faecalis arginine deiminase. The note with it: literature value, Table 1; substrate L-arginine; cited from earlier work.

T1 sequence (P23793 whole entry): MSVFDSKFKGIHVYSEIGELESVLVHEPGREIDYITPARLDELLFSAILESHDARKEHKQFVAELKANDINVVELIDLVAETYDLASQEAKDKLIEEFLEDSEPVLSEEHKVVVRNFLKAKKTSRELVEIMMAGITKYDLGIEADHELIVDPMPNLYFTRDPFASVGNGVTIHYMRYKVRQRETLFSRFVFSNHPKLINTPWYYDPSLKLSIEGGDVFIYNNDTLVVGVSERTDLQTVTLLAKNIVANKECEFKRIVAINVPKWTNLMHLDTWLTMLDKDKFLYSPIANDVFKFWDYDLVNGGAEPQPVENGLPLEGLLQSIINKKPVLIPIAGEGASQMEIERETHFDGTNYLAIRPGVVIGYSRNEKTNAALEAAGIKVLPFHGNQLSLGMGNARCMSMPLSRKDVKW

Take `N=C(N)NCCC[C@H](N)C(=O)O` [L-arginine]: the Km in assay [1] was about 200 µM; in assay [2], 4 µM; in assay [3], 100 to 400 µM; in assay [4], 150 µM.

As usually defined, the Km is the substrate concentration at which the rate is half of its maximum.

(Values after patent US5474928A, “Arginine deiminase from a Mycoplasma arginini strain” (Nippon Mining Company, Limited, priority 1989, dated 1995).)
